{"source": "patent US9724341B2", "about": "(priority 2013, dated 2017)", "key": {"[1]": {"settings": "for Nicotine Mass Loss: isothermal TGA, API powder", "protocol": "A typical calorimetric scan of nicotine m-salicylate powder is illustrated in FIG. 2. […] Thermogravimetric analysis on the powder was run in both scanning and isothermal modes. […] Isothermal data were also obtained on the API powder (˜10 mg per run) at 40° C., 50° C., and 60° C. for periods of at least 3 days."}, "[2]": {"settings": "sensitive LC method for phenol"}, "[3]": {"protocol": "Solubility limit tests were performed on nicotine m-salicylate in a number of relevant solvents. […] The approximate saturation limits are in units of mg nicotine equivalent per mL of solvent. […] However, the analytical methods developed for detecting impurities related to the m-salicylate use 236 nm as the detection wavelength. Methanol has high absorbance in this range and can therefore interfere with the analytes of interest. Acetonitrile, on the other hand, has low background absorbance in this wavelength range and is therefore ideal for use.", "remark": "listed apart in the source"}, "[4]": {"settings": "for mechanical integrity of the film: dropped 5 times", "protocol": "Fragility of the spray coating was tested using two foil arrays coated with ˜200 μg of nicotine per foil (˜11 μg nicotine/mm^2, which is about a 21 μm thick film of nicotine m-salicylate). Five foils from each array were assayed for pre-drop coated dose. Each foil array was then placed into a dose cartridge, sealed into a plastic tube, and dropped 3 times onto the floor from a height of about 1 meter. Five additional foils from each array were assayed for the post-drop coated dose.\nIn a follow-up study, we studied the effect of thickness on the mechanical integrity of the film. In this experiment, three foils from an array were assayed for pre-drop coated dose. Each foil array was then placed into a dose cartridge, sealed into a plastic tube, and dropped 5 times onto the floor from a height of about 1 meter. Three foils from each array were then assayed for the post-drop coated dose."}, "[5]": {"protocol": "The innate volatility of free base nicotine can be greatly altered once bound to a counterion acid. The stability of nicotine in the resulting salt form can vary widely, ultimately impacting its desirability for commercial consideration. Certain packaging configurations can mitigate nicotine loss. […] Decreasing the equilibrium vapor pressure point is believed to minimize the total nicotine loss. For this study, different packaging configurations were tested to investigate the following variables: container material, presence of adjuncts, and total volume of space. Container materials consisted of either glass or multi-laminate foil pouches. Glass is impermeable to vapors. Once the total volume of the glass container is flooded with nicotine vapors and any surface adsorption occurs, equilibrium is reached and no additional loss of nicotine should be observed. Though foil is also impermeable, the inner surface of the pouch is lined with an ethylene acid copolymer that promotes vapor absorbency. The copolymer should lead to greater nicotine loss within a pouch than a glass vial of the same total volume.\nThe presence of adjuncts, such as a drug cartridge housing, is a likely scenario for the final commercial product. The composition of the adjunct will affect equilibrium vapor pressure point if it preferentially absorbs vapors. For this study, a polycarbonate adjunct with a surface area of ˜150 cm^2 was introduced to the glass vial and pouch scenarios. Finally, the total packaging volume was examined. The smaller the available space, the sooner the equilibrium pressure can be reached. Open containers represent the worst case scenario, as the infinite space means that the equilibrium pressure can never be achieved. To set up the experiment, screening foils were spray coated with a 1×2 cm footprint of nicotine m-salicylate to a thickness of ˜11 ug nicotine/mm^2 (equivalent to a coated dose of 200 ug nicotine equivalent on an EMD foil). After a few random screening foils were assayed for initial time point coated dose, the remaining foils were placed in one of the following containers: • Capped glass vial (˜40 mL volume) • Heat-sealed standard pouch (˜133 mm×87 mm) • Heat-sealed standard pouch, stored with polycarbonate material (˜150 cm^2 surface area) • Uncapped glass vial (same vial as first bullet) • Binder-clipped (semi-sealed) standard pouch (˜133 mm×87 mm) • Capped glass vial, stored with polycarbonate • Heat-sealed half pouch (˜69 mm×87 mm) • Uncovered Petri dish\nThe packaged screening foils were stored at either 40° C. (oven) or 25° C. (laboratory cabinet), without relative humidity control. At pre-determined time points, three foils from each condition were washed with 5 mL of 50% v/v acetonitrile in water and analyzed on the HPLC for nicotine and m-salicylate content.", "remark": "listed apart in the source"}, "[6]": {"settings": "for time coated film relatively stable (not more than 20% nicotine loss): 40 μg/foil; for time coated film stable (nicotine): 170 μg/foil", "protocol": "Loss of nicotine and m-salicylic acid due to volatility and hygroscopic effects: Nicotine salts can suffer volatility issues and can also be quite hygroscopic. For instance, nicotine sulfate absorbs water so readily that it is shipped in aqueous solution. Hygroscopic effects on nicotine m-salicylate were evaluated for 2 doses at two conditions, 22° C./44% RH (ambient condition) and 40° C./75% RH. According to the Antoine equation for water, 40° C./75% RH translates to supersaturated humidity at 22° C. Each coated EMD array was placed flat on a Petri dish (without a cover) which was then stored at either 22° C./44% RH or 40° C./75% RH. At each time point, at least 4 random individual foils were removed from the array and each foil was extracted with 1.5 ml of 50/50 ACN/water for coated dose determination."}, "[7]": {"settings": "25° C.; cited from earlier work"}, "[8]": {"settings": "film thickness 29 μm, Post-drop (5 drops, about 1 meter)"}, "[9]": {"settings": "film thickness 37 μm, Post-drop (5 drops, about 1 meter)"}}, "note": "Where two headings read alike, the source gives them in different places."}
{"molecule": "CN1CCC[C@H]1c1cccnc1.O=C(O)c1ccccc1O", "note": "[Nicotine o-salicylate, nicotine ortho-salicylate]", "values": [{"measurement": "Nicotine Mass Loss", "setting": "[1]; 40° C.", "result": 15, "unit": "µg/day"}, {"measurement": "Nicotine Mass Loss", "setting": "[1]; 50° C.", "result": 48, "unit": "µg/day"}, {"measurement": "Nicotine Mass Loss", "setting": "[1]; 60° C.", "result": 178, "unit": "µg/day"}]}
{"molecule": "CC(C)(C(=O)O)C(=O)O.CC(C)(C(=O)O)C(=O)O.CN1CCCC1c1cccnc1", "note": "(stereo not drawn) [Nicotine bidimethylmalonate]", "values": [{"measurement": "Nicotine Mass Loss", "setting": "[1]; 40° C.", "result": 4, "unit": "µg/day"}, {"measurement": "Nicotine Mass Loss", "setting": "[1]; 50° C.", "result": 14, "unit": "µg/day"}, {"measurement": "Nicotine Mass Loss", "setting": "[1]; 60° C.", "result": 53, "unit": "µg/day"}]}
{"molecule": "Nicotine bifumarate", "values": [{"measurement": "Nicotine Mass Loss", "setting": "[1]; 40° C.", "result": 12, "unit": "µg/day"}, {"measurement": "Nicotine Mass Loss", "setting": "[1]; 50° C.", "result": 66, "unit": "µg/day"}, {"measurement": "Nicotine Mass Loss", "setting": "[1]; 60° C.", "result": 305, "unit": "µg/day"}]}
{"molecule": "CN1CCCC1c1cccnc1.O=C(O)c1cccc(O)c1", "note": "(stereo not drawn) [Nicotine m-salicylate, nicotine meta-salicylate]", "values": [{"measurement": "MMAD", "setting": "NGI cups coated with 1% (w/v) benzoic acid", "result": 0.9, "unit": "um"}, {"measurement": "MMAD", "setting": "bare NGI cups, 30 LPM, average", "result": 0.7, "unit": "μm"}, {"measurement": "Particle size", "setting": "overall conclusion", "result": "about 1 μm"}, {"measurement": "maximum content of phenol in aerosols (estimated from method sensitivity; phenol not observed)", "setting": "[2]", "result": "≤ 0.013", "unit": "%"}, {"measurement": "Saturation point", "setting": "[3]; 50/50 acetonitrile/water", "result": 64, "unit": "mg nicotine/mL"}, {"measurement": "Saturation point", "setting": "[3]; 80/20 methanol/water", "result": 118, "unit": "mg nicotine/mL"}, {"measurement": "Saturation point", "setting": "[3]; Acetonitrile", "result": 9, "unit": "mg nicotine/mL"}, {"measurement": "Saturation point", "setting": "[3]; Ethanol", "result": 33, "unit": "mg nicotine/mL"}, {"measurement": "Saturation point", "setting": "[3]; Methanol", "result": 103, "unit": "mg nicotine/mL"}, {"measurement": "Saturation point", "setting": "[3]; Water", "result": 58, "unit": "mg nicotine/mL"}, {"measurement": "Saturation point", "setting": "[3]; acetone", "result": "<<10 mg nicotine/mL"}, {"measurement": "solubility", "setting": "[3]; acetone", "result": "< 10000", "unit": "µg/mL"}, {"measurement": "solubility", "setting": "[3]; pure acetonitrile", "result": "~10000", "unit": "µg/mL"}, {"measurement": "Nicotine Mass Loss", "setting": "[1]; 40° C.", "result": 5, "unit": "µg/day"}, {"measurement": "Nicotine Mass Loss", "setting": "[1]; 50° C.", "result": 19, "unit": "µg/day"}, {"measurement": "Nicotine Mass Loss", "setting": "[1]; 60° C.", "result": 107, "unit": "µg/day"}, {"measurement": "residual after scanning TGA", "setting": "[1]; room temperature to 500° C., pan weighed before and after", "result": "~0.2", "unit": "%"}, {"measurement": "nicotine mass loss, times less than nicotine ortho-salicylate", "setting": "[1]; storage temperatures between 40-60° C.", "result": "2-3 ×"}, {"measurement": "mechanical integrity of the film", "setting": "[4]; 350 μg nicotine (~37 μm thick)", "result": "begin to show signs of fragility"}, {"measurement": "M-salicylate coated dose (average ± 1 standard deviation)", "setting": "[4]; [8]", "result": "244 ± 3"}, {"measurement": "Nicotine coated dose (average ± 1 standard deviation)", "setting": "[4]; [8]", "result": "277 ± 3"}, {"measurement": "M-salicylate coated dose (average ± 1 standard deviation)", "setting": "[4]; film thickness 29 μm, Pre-drop", "result": "247 ± 1"}, {"measurement": "Nicotine coated dose (average ± 1 standard deviation)", "setting": "[4]; film thickness 29 μm, Pre-drop", "result": "275 ± 3"}, {"measurement": "M-salicylate coated dose (average ± 1 standard deviation)", "setting": "[4]; [9]", "result": "299 ± 7"}, {"measurement": "Nicotine coated dose (average ± 1 standard deviation)", "setting": "[4]; [9]", "result": "335 ± 6"}, {"measurement": "M-salicylate coated dose (average ± 1 standard deviation)", "setting": "[4]; film thickness 37 μm, Pre-drop", "result": "311 ± 0"}, {"measurement": "Nicotine coated dose (average ± 1 standard deviation)", "setting": "[4]; film thickness 37 μm, Pre-drop", "result": "347 ± 6"}, {"measurement": "coated dose post-drop vs pre-drop, average of two arrays", "setting": "[4]; ~200 μg nicotine per foil, dropped 3 times", "result": "~0.8", "unit": "%"}, {"measurement": "mechanical integrity of the film", "setting": "[4]; ~29 μm thickness", "result": "not lost"}, {"measurement": "loss of nicotine content", "setting": "[5]; 25° C., Petri dish, 18 weeks", "result": 13, "unit": "%"}, {"measurement": "m-salicylic acid content", "setting": "[5]; 25° C., all eight conditions", "result": "stable"}, {"measurement": "Nicotine loss", "setting": "[5]; 25° C., up to 18 weeks, all conditions except Petri dish", "result": "≤ 7 % of initial"}, {"measurement": "m-salicylate content", "setting": "[5]; 40° C., all other configurations, 16 weeks", "result": "100-110 % of initial"}, {"measurement": "loss of nicotine content", "setting": "[5]; 40° C., all other stabilized (sealed) conditions", "result": "≤ 10", "unit": "%"}, {"measurement": "loss of nicotine content", "setting": "[5]; 40° C., sealed standard sized pouches containing polycarbonate material", "result": "~20", "unit": "%"}, {"measurement": "m-salicylate content", "setting": "[5]; Petri dish, four weeks at 40° C.", "result": "~80 % of initial"}, {"measurement": "time coated film relatively stable (not more than 20% nicotine loss)", "setting": "[6]; 22° C./60% RH", "result": "up to 4 weeks"}, {"measurement": "time coated film relatively stable (not more than 20% nicotine loss)", "setting": "[6]; 35° C./80% RH", "result": "≤ 5", "unit": "days"}, {"measurement": "time coated film relatively stable (not more than 20% nicotine loss)", "setting": "[6]; 60° C./35% RH", "result": "up to 4 hours"}, {"measurement": "time coated film stable (nicotine)", "setting": "[6]; 22° C./60% RH", "result": "≥ 4", "unit": "weeks"}, {"measurement": "time coated film stable (nicotine)", "setting": "[6]; 25° C./90% RH", "result": "≥ 13", "unit": "days"}, {"measurement": "time coated film stable (nicotine)", "setting": "[6]; 35° C./80% RH", "result": "≥ 7", "unit": "days"}, {"measurement": "time coated film stable (nicotine)", "setting": "[6]; 60° C./35% RH", "result": "at least 8 hours"}, {"measurement": "M-salicylic acid stability of coated films", "setting": "[6]; all conditions except the 40 μg/foil dose at 25° C./90% RH", "result": "relatively stable"}]}
{"molecule": "CN1CCCC1c1cccnc1", "note": "(stereo not drawn) [Nicotine]", "values": [{"measurement": "vapor pressure", "setting": "[7]", "result": 0.0425, "unit": "mmHg"}]}
{"molecule": "CN1CCCC1c1cccnc1.O=C(O)/C=C/C(=O)O", "note": "(stereo not drawn) [Nicotine monofumarate]", "values": [{"measurement": "Nicotine Mass Loss", "setting": "[1]; 40° C.", "result": 7, "unit": "µg/day"}, {"measurement": "Nicotine Mass Loss", "setting": "[1]; 50° C.", "result": 39, "unit": "µg/day"}, {"measurement": "Nicotine Mass Loss", "setting": "[1]; 60° C.", "result": 219, "unit": "µg/day"}]}
{"molecule": "CN1CCCC1c1cccnc1.O=C(O)C(O)C(O)C(=O)O", "note": "(stereo not drawn) [Nicotine bitartrate]", "values": [{"measurement": "Nicotine Mass Loss", "setting": "[1]; 40° C.", "result": 1, "unit": "µg/day"}, {"measurement": "Nicotine Mass Loss", "setting": "[1]; 50° C.", "result": 3, "unit": "µg/day"}, {"measurement": "Nicotine Mass Loss", "setting": "[1]; 60° C.", "result": 10, "unit": "µg/day"}]}
